Measured values from patent EP4772513A1, “PI3K-ALPHA INHIBITOR AND USE THEREOF” (TYK Medicines (Zhengzhou), Inc., priority 2023, dated 2025).

Experiments:
[1] = test system: Human breast cancer cells T47D (H1047R); assay: Cell proliferation inhibition assay (CTG), T47D (H1047R); format: cell-based; settings: 3 days incubation, CTG readout
Protocol: (§1) Cell Proliferation Inhibition Assay
(§2) 1. Experimental Materials
(§3) II. Experimental Protocol
(§4) • a) Cell suspension was prepared; • b) The medium was removed from the culture flask; • c) The cells were rinsed once with PBS; • d) Trypsin was added for digestion, and the cells were centrifuged and collected; • e) The cells were resuspended in medium, counted and adjusted to an appropriate concentration; • f) 100 µL of cell suspension was added to each well of a 96-well plate. One plate was used for each cell line, which was incubated overnight in a 37 °C, 5% CO2 incubator.
(§5) 2. Treatment of Compounds
(§6) • a) Serial dilutions of the test compounds were prepared: The compound was prepared as a 10 mM stock solution. 18 µL of the stock solution was dissolved in 982 µL of the culture medium containing DMSO, followed by 4-fold serial dilutions in culture medium containing 0.5% DMSO to give 9 concentrations. The concentrations of the diluted compound were as follows: 180000 nM, 45000 nM, 11250 nM, 2812.5 nM, 703.13 nM, 175.78 nM, 43.95 nM, 10.99 nM, and 2.75 nM. • b) After thorough mixing, 20 µL of each compound solution was added to the cell plate containing 100 µL of cells per well. Each concentration was tested in triplicate. Final concentrations of the compound were as follows: 30000 nM, 7500 nM, 1875 nM, 468.75 nM, 117.188 nM, 29.30 nM, 7.32 nM, 1.83 nM, and 0.46 nM. • c) The cells were transferred into the incubator and incubated for 3 days.
(§7) The cell plate was removed, 25 µL of CTG reagent was added to each well of the 96-well plate, the mixture was shook on a plate shaker at room temperature for 10 minutes, and the plate was read.
(§8) The cell survival rate was calculated using the following formula (% Cell Survival): % Cell Survival = 100% × (OD_Sample−OD_LCave)/(OD_HC−OD_LCave) [formula] • OD_HC: Reading of the 0.1‰ DMSO control group • OD_Sample: Reading of cells treated with compound • OD_LCave: Reading of blank medium
(§9) Analyzed by Prism: Dose-response-Inhibition - Log (inhibitor) vs response (three parameters for the best fit).

[2] = test system: Human breast cancer cells SK-BR-3 (WT); assay: Cell proliferation inhibition assay (CTG), SK-BR-3 (WT); format: cell-based; settings: SK-BR-3 (WT) cells, 3 days incubation, CTG readout
Protocol: as §1, §2, §3, §4, §5, §6, §7, §8, §9

SMILES | IC50 ([1]; Homo sapiens, 72 h) | IC50 ([2]; Homo sapiens, 72 h) | IC50 [1] | IC50 [2]
CC(Nc1ccccc1C(=O)O)c1cc(F)cc2c(=O)n3c(nc12)CN(c1cccnc1)CC3 (single isomer, unassigned) [Compound C15] | 500 to 2000 nM | > 5000 nM |  | 
CC(Nc1ccccc1C(=O)O)c1cc(F)cc2c(=O)c3c(oc12)CN(S(=O)(=O)C(C)C)CC3 (single isomer, unassigned) [Compound C39] | ≤ 500 nM | > 5000 nM |  | 
CC(Nc1ccccc1C(=O)O)c1cc(F)cc2c(=O)c3c(oc12)CN(C(=O)N1CCCC1)CC3 (single isomer, unassigned) [Compound C41] | ≤ 500 nM | > 5000 nM |  | 
CC(Nc1ccccc1C(=O)O)c1cc(F)cc2c(=O)c3c(oc12)CN(C(=O)N1CCC1)CC3 (single isomer, unassigned) [Compound C47] | ≤ 500 nM | > 5000 nM |  | 
Cc1cc(C(C)Nc2ccc(Cl)nc2C(=O)O)c2oc3c(c(=O)c2c1)CCN(S(=O)(=O)C(C)C)C3 (single isomer, unassigned) [Compound C49] | ≤ 500 nM | > 5000 nM |  | 
Cc1cc(C(C)Nc2ccccc2C(=O)O)c2oc3c(c(=O)c2c1)CCN(C(=O)N1CCCC1)C3 (single isomer, unassigned) [Compound C50] | ≤ 500 nM | > 5000 nM |  | 
Cc1cc(C(C)Nc2ccccc2C(=O)O)c2oc3c(c(=O)c2c1)CCN(S(=O)(=O)N1CCCC1)C3 (single isomer, unassigned) [Compound C56] | ≤ 500 nM | > 5000 nM |  | 
Cc1cc(C(C)Nc2ccccc2C(=O)O)c2oc3c(c(=O)c2c1)CCN(S(=O)(=O)C1CC1)C3 (single isomer, unassigned) [Compound C59] | ≤ 500 nM | > 5000 nM |  | 
Cc1cc(C(C)Nc2ccccc2C(=O)O)c2oc3c(c(=O)c2c1)CCN(S(=O)(=O)c1ccccc1)C3 (single isomer, unassigned) [Compound C61] | ≤ 500 nM | > 5000 nM |  | 
CC(Nc1ccccc1C(=O)O)c1cc(F)cc2c(=O)c3c(oc12)C(C)N(S(=O)(=O)C(C)C)CC3 (single isomer, unassigned) [Compound C163] | ≤ 500 nM | > 5000 nM |  | 
Cc1cc(C(C)Nc2ccc(Cl)nc2C(=O)O)c2nc3c(c(=O)n2c1)CCN(S(=O)(=O)c1c(C)cnn1C)C3 (single isomer, unassigned) [Compound C184] | ≤ 500 nM | > 5000 nM |  | 
Cc1cc(C(C)Nc2ccccc2C(=O)O)c2nc3c(c(=O)n2c1)CCN(S(=O)(=O)C(C)C)C3 (single isomer, unassigned) [Compound C196] | ≤ 500 nM | > 5000 nM |  | 
Cc1cc(C(C)Nc2ccccc2C(=O)O)c2oc3c(c(=O)c2c1)CCN(C(c1ccccc1)C(F)(F)F)C3 (single isomer, unassigned) [Compound C207] | ≤ 500 nM | > 5000 nM |  | 
Cc1cc(C(C)Nc2ccccc2C(=O)O)c2oc3c(c(=O)c2c1)CCN(C(c1ccccc1)C(F)(F)F)C3 (single isomer, unassigned) [Compound C209] |  |  | ≤ 500 nM | > 5000 nM
C[C@@H](Nc1ccc(Cl)nc1C(=O)O)c1cc(Cl)cc2c(=O)c3c(oc12)CN(S(=O)(=O)N1CCOCC1)CC3 [Compound C66] | ≤ 500 nM | > 5000 nM |  | 
C[C@@H](Nc1ccc(Cl)nc1C(=O)O)c1cc(F)cc2c(=O)c3c(oc12)CN(S(=O)(=O)N1CCOCC1)CC3 [Compound C67] | ≤ 500 nM | > 5000 nM |  | 
C[C@@H](Nc1ccc(Cl)nc1C(=O)O)c1cc(F)cc2c(=O)c3c(oc12)CN(S(=O)(=O)C1CC1)CC3 [Compound C68] | 500 to 2000 nM | > 5000 nM |  | 
CC(C)S(=O)(=O)N1CCc2c(oc3c([C@@H](C)Nc4ccc(Cl)nc4C(=O)O)cc(F)cc3c2=O)C1 [Compound C72] | 500 to 2000 nM | > 5000 nM |  | 
C[C@@H](Nc1ccc(Cl)nc1C(=O)O)c1cc(F)cc2c(=O)c3c(oc12)CN(S(=O)(=O)N1CCC1)CC3 [Compound C73] | 500 to 2000 nM | > 5000 nM |  | 
C[C@@H](Nc1ccc(Cl)nc1C(=O)O)c1cc(F)cc2c(=O)c3c(oc12)CN(S(=O)(=O)c1ccccc1)CC3 [Compound C77] | ≤ 500 nM | > 5000 nM |  | 
C[C@@H](Nc1ccccc1C(=O)O)c1cc(F)cc2c(=O)c3c(oc12)CN(S(=O)(=O)C1CC1)CC3 [Compound C78] | 500 to 2000 nM | > 5000 nM |  | 
C[C@@H](Nc1ccccc1C(=O)O)c1cc(F)cc2c(=O)c3c(oc12)CN(S(=O)(=O)N1CCOCC1)CC3 [Compound C80] | ≤ 500 nM | > 5000 nM |  | 

SMILES | IC50 ([1]; Homo sapiens, 72 h) | IC50 ([2]; Homo sapiens, 72 h) | IC50 [1] | IC50 [2]
Cc1cc([C@@H](C)Nc2ccc(Cl)nc2C(=O)O)c2oc3c(c(=O)c2c1)CCN(S(=O)(=O)N1CCOCC1)C3 [Compound C81] | 500 to 2000 nM | > 5000 nM |  | 
Cc1cc([C@@H](C)Nc2ccc(Cl)nc2C(=O)O)c2oc3c(c(=O)c2c1)CCN(S(=O)(=O)c1ccccc1)C3 [Compound C82] | ≤ 500 nM | > 5000 nM |  | 
C[C@@H](Nc1ccc(Cl)nc1C(=O)O)c1cc(F)cc2c(=O)c3c(oc12)CN(C(=O)N1CC(F)C1)CC3 [Compound C83] | 500 to 2000 nM | > 5000 nM |  | 
C[C@@H](Nc1ccccc1C(=O)O)c1cc(F)cc2c(=O)c3c(oc12)CN(S(=O)(=O)c1ccccc1)CC3 [Compound C89] | ≤ 500 nM | > 5000 nM |  | 
C[C@@H](Nc1ccc(Cl)nc1C(=O)O)c1cc(F)cc2c(=O)c3c(oc12)CN(S(=O)(=O)c1ccccc1C#N)CC3 [Compound C90] | ≤ 500 nM | > 5000 nM |  | 
C[C@@H](Nc1ccc(Cl)nc1C(=O)O)c1cc(F)cc2c(=O)c3c(oc12)CN(S(=O)(=O)c1cccc(C#N)c1)CC3 [Compound C91] | 500 to 2000 nM | > 5000 nM |  | 
C[C@@H](Nc1ccc(Cl)nc1C(=O)O)c1cc(F)cc2c(=O)c3c(oc12)CN(S(=O)(=O)c1ccc(C#N)cc1)CC3 [Compound C92] | 500 to 2000 nM | > 5000 nM |  | 
C[C@@H](Nc1ccc(Cl)nc1C(=O)O)c1cc(F)cc2c(=O)c3c(oc12)CN(S(=O)(=O)c1ccccc1F)CC3 [Compound C93] | ≤ 500 nM | > 5000 nM |  | 
C[C@@H](Nc1ccc(Cl)nc1C(=O)O)c1cc(F)cc2c(=O)c3c(oc12)CN(S(=O)(=O)c1cccc(F)c1)CC3 [Compound C94] | ≤ 500 nM | > 5000 nM |  | 
C[C@@H](Nc1ccc(Cl)nc1C(=O)O)c1cc(F)cc2c(=O)c3c(oc12)CN(S(=O)(=O)c1ccc(F)cc1)CC3 [Compound C95] | ≤ 500 nM | > 5000 nM |  | 
COc1ccccc1S(=O)(=O)N1CCc2c(oc3c([C@@H](C)Nc4ccc(Cl)nc4C(=O)O)cc(F)cc3c2=O)C1 [Compound C96] | ≤ 500 nM | > 5000 nM |  | 
COc1cccc(S(=O)(=O)N2CCc3c(oc4c([C@@H](C)Nc5ccc(Cl)nc5C(=O)O)cc(F)cc4c3=O)C2)c1 [Compound C97] | ≤ 500 nM | > 5000 nM |  | 
COc1ccc(S(=O)(=O)N2CCc3c(oc4c([C@@H](C)Nc5ccc(Cl)nc5C(=O)O)cc(F)cc4c3=O)C2)cc1 [Compound C98] | ≤ 500 nM | > 5000 nM |  | 
C[C@@H](Nc1ccc(Cl)nc1C(=O)O)c1cc(F)cc2c(=O)c3c(oc12)CN(S(=O)(=O)c1nccn1C)CC3 [Compound C101] | 500 to 2000 nM | > 5000 nM |  | 
C[C@@H](Nc1ccc(Cl)nc1C(=O)O)c1cc(F)cc2c(=O)c3c(oc12)CN(S(=O)(=O)C1CCCC1)CC3 [Compound C108] | 500 to 2000 nM | > 5000 nM |  | 
C[C@@H](Nc1ccc(Cl)nc1C(=O)O)c1cc(F)cc2c(=O)c3c(oc12)CN(S(=O)(=O)C1CCCCC1)CC3 [Compound C109] | ≤ 500 nM | > 5000 nM |  | 
Cc1cc([C@@H](C)Nc2ccc(Cl)nc2C(=O)O)c2oc3c(c(=O)c2c1)CCN(S(=O)(=O)C1(C)CC1)C3 [Compound C113] | ≤ 500 nM | > 5000 nM |  | 
C[C@@H](Nc1ccc(Cl)nc1C(=O)O)c1cc(F)cc2c(=O)c3c(oc12)CN(S(=O)(=O)c1c(F)cccc1F)CC3 [Compound C114] | ≤ 500 nM | > 5000 nM |  | 
C[C@@H](Nc1ccc(Cl)nc1C(=O)O)c1cc(F)cc2c(=O)c3c(oc12)CN(S(=O)(=O)c1ccccc1C(F)(F)F)CC3 [Compound C115] | ≤ 500 nM | > 5000 nM |  | 
C[C@@H]1COCCN1S(=O)(=O)N1CCc2c(oc3c([C@@H](C)Nc4ccc(Cl)nc4C(=O)O)cc(F)cc3c2=O)C1 [Compound C116] | ≤ 500 nM | > 5000 nM |  | 
C[C@@H](Nc1ccc(Cl)nc1C(=O)O)c1cc(F)cc2c(=O)c3c(oc12)CN(S(=O)(=O)N1CCOC[C@@H]1C)CC3 [Compound C117] | ≤ 500 nM | > 5000 nM |  | 
Cc1noc(C)c1S(=O)(=O)N1CCc2c(oc3c([C@@H](C)Nc4ccc(Cl)nc4C(=O)O)cc(F)cc3c2=O)C1 [Compound C118] | ≤ 500 nM | > 5000 nM |  | 
